Assay results published in ChEMBL document CHEMBL1147715, “Gatifloxacin derivatives: synthesis, antimycobacterial activities, and inhibition of Mycobacterium tuberculosis DNA gyrase” (Bioorg Med Chem Lett, 2006).
Converted amounts (≈) assume the structure as drawn.

These compounds were tested on Mycobacterium tuberculosis (assay: Antimycobacterial activity against multi-drug resistant Mycobacterium tuberculosis).
Type: functional

In order of falling MIC:
1. COc1c(N2CCNC(C)C2)c(F)cc2c(=O)c(C(=O)O)cn(C3CC3)c12 (configuration not stated) [GATIFLOXACIN]  3.12 µg/mL (≈ 8.31 µM)
2. COc1c(N2CCN(Cn3c(O)c(/N=N/C(=N)S)c4cc(Cl)ccc43)C(C)C2)c(F)cc2c(=O)c(C(=O)O)cn(C3CC3)c12 (configuration not stated)  0.78 µg/mL (≈ 1.21 µM)
3. COc1c(N2CCN(Cn3c(O)c(/N=N/C(N)=O)c4cc(Cl)ccc43)C(C)C2)c(F)cc2c(=O)c(C(=O)O)cn(C3CC3)c12 (configuration not stated)  0.78 µg/mL (≈ 1.25 µM)
4. COc1c(N2CCN(Cn3c(O)c(/N=N/C(=O)c4ccncc4)c4cc(F)ccc43)C(C)C2)c(F)cc2c(=O)c(C(=O)O)cn(C3CC3)c12 (configuration not stated)  0.78 µg/mL (≈ 1.16 µM)
5. COc1c(N2CCN(Cn3c(O)c(/N=N/C(=O)c4ccncc4)c4cc(C)ccc43)C(C)C2)c(F)cc2c(=O)c(C(=O)O)cn(C3CC3)c12 (configuration not stated)  0.78 µg/mL (≈ 1.17 µM)
6. COc1c(N2CCN(CN3C(=O)/C(=N\c4ccc(S(=O)(=O)Nc5ncccn5)cc4)c4cc(C)ccc43)C(C)C2)c(F)cc2c(=O)c(C(=O)O)cn(C3CC3)c12 (configuration not stated)  0.78 µg/mL (≈ 0.999 µM)
7. COc1c(N2CCN(Cn3c(O)c(/N=N/C(=N)S)c4cc(C)ccc43)C(C)C2)c(F)cc2c(=O)c(C(=O)O)cn(C3CC3)c12 (configuration not stated)  0.78 µg/mL (≈ 1.25 µM)
8. COc1c(N2CCN(Cn3c(O)c(/N=N/C(N)=O)c4cc(C)ccc43)C(C)C2)c(F)cc2c(=O)c(C(=O)O)cn(C3CC3)c12 (configuration not stated)  0.78 µg/mL (≈ 1.29 µM)
9. COc1c(N2CCN(Cn3c(O)c(/N=N/C(=O)c4ccncc4)c4cc(Cl)ccc43)C(C)C2)c(F)cc2c(=O)c(C(=O)O)cn(C3CC3)c12 (configuration not stated)  0.78 µg/mL (≈ 1.13 µM)
10. COc1c(N2CCN(Cn3c(O)c(/N=N/C(=N)S)c4ccccc43)C(C)C2)c(F)cc2c(=O)c(C(=O)O)cn(C3CC3)c12 (configuration not stated)  0.2 µg/mL (≈ 0.329 µM)
11. COc1c(N2CCN(Cn3c(O)c(/N=N/C(=O)c4ccncc4)c4ccccc43)C(C)C2)c(F)cc2c(=O)c(C(=O)O)cn(C3CC3)c12 (configuration not stated)  0.2 µg/mL (≈ 0.306 µM)
12. COc1c(N2CCN(Cn3c(O)c(/N=N/C(N)=O)c4cc(F)ccc43)C(C)C2)c(F)cc2c(=O)c(C(=O)O)cn(C3CC3)c12 (configuration not stated)  0.2 µg/mL (≈ 0.328 µM)
13. COc1c(N2CCN(CN3C(=O)/C(=N\c4ccc(S(=O)(=O)Nc5ncccn5)cc4)c4cc(Cl)ccc43)C(C)C2)c(F)cc2c(=O)c(C(=O)O)cn(C3CC3)c12 (configuration not stated)  0.1 µg/mL (≈ 0.125 µM)
14. COc1c(N2CCN(CN3C(=O)/C(=N\c4ccc(S(=O)(=O)Nc5ncccn5)cc4)c4ccccc43)C(C)C2)c(F)cc2c(=O)c(C(=O)O)cn(C3CC3)c12 (configuration not stated)  0.1 µg/mL (≈ 0.13 µM)
15. COc1c(N2CCN(CN3C(=O)/C(=N\c4ccc(S(=O)(=O)Nc5ncccn5)cc4)c4cc(F)ccc43)C(C)C2)c(F)cc2c(=O)c(C(=O)O)cn(C3CC3)c12 (configuration not stated)  0.1 µg/mL (≈ 0.127 µM)
16. COc1c(N2CCN(Cn3c(O)c(/N=N/C(=N)S)c4cc(F)ccc43)C(C)C2)c(F)cc2c(=O)c(C(=O)O)cn(C3CC3)c12 (configuration not stated)  0.1 µg/mL (≈ 0.16 µM)
17. COc1c(N2CCN(Cn3c(O)c(/N=N/C(N)=O)c4ccccc43)C(C)C2)c(F)cc2c(=O)c(C(=O)O)cn(C3CC3)c12 (configuration not stated)  0.05 µg/mL (≈ 0.0845 µM)
